Among the data in ChEMBL document CHEMBL3991601, “The target landscape of clinical kinase drugs” (Science, 2017) are Kd values, retold here.

SMILES strings stand for the structures. pKd: −log10 of the molar value. Calls of active or inactive are those of the source. A value given as a limit tells only on which side of the number the result lay.

Among the targets are Myosin-14 (Homo sapiens, UniProt Q7Z406); Aurora kinase B (Homo sapiens, UniProt Q96GD4); Obg-like ATPase 1 (Homo sapiens, UniProt Q9NTK5).
The target of assay [1] is DnaJ homolog subfamily A member 1 (Homo sapiens, UniProt P31689).
Assay [2] deals with T1, Serine/threonine-protein kinase STK11 (Homo sapiens, UniProt Q15831).
T1 sequence (Q15831 whole entry): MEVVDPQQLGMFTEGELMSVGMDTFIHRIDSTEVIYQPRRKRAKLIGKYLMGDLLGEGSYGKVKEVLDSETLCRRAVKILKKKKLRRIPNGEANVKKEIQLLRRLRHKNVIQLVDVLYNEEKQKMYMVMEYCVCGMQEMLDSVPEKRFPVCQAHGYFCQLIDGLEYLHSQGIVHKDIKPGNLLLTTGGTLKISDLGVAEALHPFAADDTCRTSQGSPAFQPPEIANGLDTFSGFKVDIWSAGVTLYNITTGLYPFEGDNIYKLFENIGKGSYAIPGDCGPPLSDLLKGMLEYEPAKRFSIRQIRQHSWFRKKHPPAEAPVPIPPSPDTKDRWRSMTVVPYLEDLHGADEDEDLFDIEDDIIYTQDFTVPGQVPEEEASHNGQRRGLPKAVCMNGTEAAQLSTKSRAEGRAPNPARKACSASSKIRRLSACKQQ

Assay [3] has as its target NADH dehydrogenase [ubiquinone] 1 alpha subcomplex subunit 13 (Homo sapiens, UniProt Q9P0J0).
The target of assay [4] is T2, Serine/threonine-protein kinase NLK (Homo sapiens, UniProt Q9UBE8).
T2 sequence (Q9UBE8 whole entry): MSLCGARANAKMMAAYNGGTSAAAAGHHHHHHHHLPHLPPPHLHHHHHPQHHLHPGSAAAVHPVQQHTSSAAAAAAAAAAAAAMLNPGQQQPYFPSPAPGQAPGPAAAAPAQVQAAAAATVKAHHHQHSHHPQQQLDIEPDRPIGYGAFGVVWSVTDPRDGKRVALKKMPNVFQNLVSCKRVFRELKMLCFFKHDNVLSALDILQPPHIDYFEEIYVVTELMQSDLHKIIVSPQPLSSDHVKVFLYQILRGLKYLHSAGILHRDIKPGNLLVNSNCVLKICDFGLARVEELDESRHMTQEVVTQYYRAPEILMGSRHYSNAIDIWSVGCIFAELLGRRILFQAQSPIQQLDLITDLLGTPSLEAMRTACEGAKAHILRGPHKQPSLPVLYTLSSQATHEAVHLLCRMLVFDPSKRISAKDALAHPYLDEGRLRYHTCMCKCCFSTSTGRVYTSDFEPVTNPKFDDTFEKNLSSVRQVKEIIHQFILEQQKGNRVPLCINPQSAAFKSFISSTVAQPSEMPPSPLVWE

Assay [5] addresses Mitogen-activated protein kinase 3 (Homo sapiens, UniProt P27361).
Assay [6] deals with 26S proteasome regulatory subunit 6B (Homo sapiens, UniProt P43686).
The target in assay [7] is T3, Mitogen-activated protein kinase kinase kinase kinase 2 (Homo sapiens, UniProt Q12851).
T3 sequence (Q12851 whole entry): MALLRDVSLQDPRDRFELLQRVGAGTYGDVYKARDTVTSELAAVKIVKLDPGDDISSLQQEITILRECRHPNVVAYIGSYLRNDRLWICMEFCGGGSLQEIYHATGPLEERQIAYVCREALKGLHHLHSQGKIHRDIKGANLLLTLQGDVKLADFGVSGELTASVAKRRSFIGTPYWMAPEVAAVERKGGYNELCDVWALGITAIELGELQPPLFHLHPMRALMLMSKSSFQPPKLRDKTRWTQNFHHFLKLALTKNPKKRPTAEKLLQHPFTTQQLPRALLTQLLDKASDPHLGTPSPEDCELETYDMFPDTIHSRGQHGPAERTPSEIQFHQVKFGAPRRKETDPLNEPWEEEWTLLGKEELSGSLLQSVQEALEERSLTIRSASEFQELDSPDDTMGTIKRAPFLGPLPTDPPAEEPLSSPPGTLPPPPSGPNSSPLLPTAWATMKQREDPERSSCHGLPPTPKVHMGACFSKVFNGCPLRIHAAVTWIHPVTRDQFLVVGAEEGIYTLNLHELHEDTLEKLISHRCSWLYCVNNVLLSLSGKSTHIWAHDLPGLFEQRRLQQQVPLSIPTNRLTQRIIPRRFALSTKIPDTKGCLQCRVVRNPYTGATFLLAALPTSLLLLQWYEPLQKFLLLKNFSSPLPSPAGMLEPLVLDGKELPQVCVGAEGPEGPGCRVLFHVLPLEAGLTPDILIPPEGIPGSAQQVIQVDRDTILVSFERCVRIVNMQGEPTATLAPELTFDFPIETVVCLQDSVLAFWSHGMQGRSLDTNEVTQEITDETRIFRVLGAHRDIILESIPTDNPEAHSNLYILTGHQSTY

The target in assay [8] is Protein-tyrosine kinase 2-beta (Homo sapiens, UniProt Q14289).
For assay [9], the target named is DNA topoisomerase 2-alpha (Homo sapiens, UniProt P11388).
The target of assay [10] is Serine/threonine-protein kinase MRCK gamma (Homo sapiens, UniProt Q6DT37).
In assay [11] the target is T4, Ribosyldihydronicotinamide dehydrogenase [quinone] (Homo sapiens, UniProt P16083).
T4 sequence (P16083 whole entry): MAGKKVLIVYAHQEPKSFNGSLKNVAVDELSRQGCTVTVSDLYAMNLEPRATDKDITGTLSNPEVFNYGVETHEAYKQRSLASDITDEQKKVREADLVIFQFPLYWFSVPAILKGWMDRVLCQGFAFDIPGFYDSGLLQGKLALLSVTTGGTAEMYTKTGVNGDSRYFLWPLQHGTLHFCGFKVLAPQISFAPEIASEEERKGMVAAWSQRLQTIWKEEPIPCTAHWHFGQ

Assay [12] has as its target Serine/threonine-protein kinase PAK 4 (Homo sapiens, UniProt O96013).
Further: in the data inactive means no Kd found up to 30 µM.

Chain of Serine/threonine-protein kinase MRCK gamma (Q6DT37 whole entry): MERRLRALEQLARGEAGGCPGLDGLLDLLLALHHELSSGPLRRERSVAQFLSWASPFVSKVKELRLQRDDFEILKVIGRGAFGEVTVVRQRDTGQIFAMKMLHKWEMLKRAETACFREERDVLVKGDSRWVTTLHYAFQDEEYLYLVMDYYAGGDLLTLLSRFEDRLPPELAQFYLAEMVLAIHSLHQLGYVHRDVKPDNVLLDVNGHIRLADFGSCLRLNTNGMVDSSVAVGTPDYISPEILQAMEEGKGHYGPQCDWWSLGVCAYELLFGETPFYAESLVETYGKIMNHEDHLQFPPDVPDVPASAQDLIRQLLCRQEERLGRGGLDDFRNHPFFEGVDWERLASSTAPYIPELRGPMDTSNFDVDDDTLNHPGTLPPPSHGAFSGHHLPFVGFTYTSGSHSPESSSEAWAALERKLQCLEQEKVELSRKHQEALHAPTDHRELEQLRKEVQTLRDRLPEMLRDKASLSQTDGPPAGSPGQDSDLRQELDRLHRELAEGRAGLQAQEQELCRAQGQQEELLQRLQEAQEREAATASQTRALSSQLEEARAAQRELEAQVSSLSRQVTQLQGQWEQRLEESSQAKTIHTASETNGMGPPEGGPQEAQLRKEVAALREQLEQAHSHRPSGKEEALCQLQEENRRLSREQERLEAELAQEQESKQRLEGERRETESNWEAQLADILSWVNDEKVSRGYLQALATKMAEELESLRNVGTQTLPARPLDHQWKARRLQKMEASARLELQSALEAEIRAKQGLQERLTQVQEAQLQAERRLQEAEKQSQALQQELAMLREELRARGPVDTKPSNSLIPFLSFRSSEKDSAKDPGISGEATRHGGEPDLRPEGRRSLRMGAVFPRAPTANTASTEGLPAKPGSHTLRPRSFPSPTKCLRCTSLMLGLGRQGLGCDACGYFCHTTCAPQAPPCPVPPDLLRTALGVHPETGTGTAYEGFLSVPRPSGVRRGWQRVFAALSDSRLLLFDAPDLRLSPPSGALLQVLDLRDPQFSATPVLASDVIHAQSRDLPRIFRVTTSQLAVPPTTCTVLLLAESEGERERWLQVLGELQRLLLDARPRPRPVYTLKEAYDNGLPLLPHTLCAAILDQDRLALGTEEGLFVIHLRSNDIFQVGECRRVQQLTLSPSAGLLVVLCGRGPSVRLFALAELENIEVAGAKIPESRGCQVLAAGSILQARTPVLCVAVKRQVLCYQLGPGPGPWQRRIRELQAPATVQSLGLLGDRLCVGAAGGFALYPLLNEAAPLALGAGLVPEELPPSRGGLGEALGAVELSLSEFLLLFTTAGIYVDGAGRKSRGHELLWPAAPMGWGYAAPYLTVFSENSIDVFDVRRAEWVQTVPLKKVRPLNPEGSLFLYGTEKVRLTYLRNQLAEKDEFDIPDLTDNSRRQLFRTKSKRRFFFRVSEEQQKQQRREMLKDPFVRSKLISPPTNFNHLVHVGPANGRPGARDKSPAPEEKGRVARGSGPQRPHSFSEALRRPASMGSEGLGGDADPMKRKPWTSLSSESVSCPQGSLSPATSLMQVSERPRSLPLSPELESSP
Chain of 26S proteasome regulatory subunit 6B (P43686 whole entry): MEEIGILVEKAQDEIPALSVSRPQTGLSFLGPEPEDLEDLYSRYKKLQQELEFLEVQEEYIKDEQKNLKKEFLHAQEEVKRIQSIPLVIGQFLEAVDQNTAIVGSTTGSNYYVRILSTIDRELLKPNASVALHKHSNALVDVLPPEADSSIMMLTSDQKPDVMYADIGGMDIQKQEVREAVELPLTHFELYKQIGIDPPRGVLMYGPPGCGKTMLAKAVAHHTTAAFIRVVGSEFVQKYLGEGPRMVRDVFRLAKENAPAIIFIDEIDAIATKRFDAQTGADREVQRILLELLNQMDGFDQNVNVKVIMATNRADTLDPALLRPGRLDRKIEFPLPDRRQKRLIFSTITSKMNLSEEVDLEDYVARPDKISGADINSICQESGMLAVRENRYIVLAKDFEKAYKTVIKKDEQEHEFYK
Chain of Aurora kinase B (Q96GD4 whole entry): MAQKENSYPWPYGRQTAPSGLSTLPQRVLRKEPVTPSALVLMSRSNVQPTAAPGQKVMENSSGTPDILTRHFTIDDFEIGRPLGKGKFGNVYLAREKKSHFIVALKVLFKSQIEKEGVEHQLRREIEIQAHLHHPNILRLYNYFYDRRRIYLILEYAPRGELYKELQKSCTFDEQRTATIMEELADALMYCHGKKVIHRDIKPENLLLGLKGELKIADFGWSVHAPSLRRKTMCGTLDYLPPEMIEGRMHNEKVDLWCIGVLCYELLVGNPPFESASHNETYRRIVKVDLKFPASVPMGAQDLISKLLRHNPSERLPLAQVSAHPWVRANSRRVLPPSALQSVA
Chain of Serine/threonine-protein kinase PAK 4 (O96013 whole entry): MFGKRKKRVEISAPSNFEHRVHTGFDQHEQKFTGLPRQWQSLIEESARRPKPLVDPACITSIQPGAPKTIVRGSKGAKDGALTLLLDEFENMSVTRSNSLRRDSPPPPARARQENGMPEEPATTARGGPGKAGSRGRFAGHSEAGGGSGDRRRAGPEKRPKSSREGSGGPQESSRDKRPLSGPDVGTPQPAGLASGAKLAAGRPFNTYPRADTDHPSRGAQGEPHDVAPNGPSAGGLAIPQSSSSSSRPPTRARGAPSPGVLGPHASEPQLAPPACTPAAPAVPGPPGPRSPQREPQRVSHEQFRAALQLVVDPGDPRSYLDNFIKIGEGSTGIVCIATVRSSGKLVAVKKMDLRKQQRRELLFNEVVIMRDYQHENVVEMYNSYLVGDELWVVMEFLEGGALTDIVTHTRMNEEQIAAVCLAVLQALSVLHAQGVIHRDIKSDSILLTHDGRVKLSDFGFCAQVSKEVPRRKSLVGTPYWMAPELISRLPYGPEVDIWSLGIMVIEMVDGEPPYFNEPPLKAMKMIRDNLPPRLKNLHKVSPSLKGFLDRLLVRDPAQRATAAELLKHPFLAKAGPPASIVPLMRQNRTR
Chain of Protein-tyrosine kinase 2-beta (Q14289 whole entry): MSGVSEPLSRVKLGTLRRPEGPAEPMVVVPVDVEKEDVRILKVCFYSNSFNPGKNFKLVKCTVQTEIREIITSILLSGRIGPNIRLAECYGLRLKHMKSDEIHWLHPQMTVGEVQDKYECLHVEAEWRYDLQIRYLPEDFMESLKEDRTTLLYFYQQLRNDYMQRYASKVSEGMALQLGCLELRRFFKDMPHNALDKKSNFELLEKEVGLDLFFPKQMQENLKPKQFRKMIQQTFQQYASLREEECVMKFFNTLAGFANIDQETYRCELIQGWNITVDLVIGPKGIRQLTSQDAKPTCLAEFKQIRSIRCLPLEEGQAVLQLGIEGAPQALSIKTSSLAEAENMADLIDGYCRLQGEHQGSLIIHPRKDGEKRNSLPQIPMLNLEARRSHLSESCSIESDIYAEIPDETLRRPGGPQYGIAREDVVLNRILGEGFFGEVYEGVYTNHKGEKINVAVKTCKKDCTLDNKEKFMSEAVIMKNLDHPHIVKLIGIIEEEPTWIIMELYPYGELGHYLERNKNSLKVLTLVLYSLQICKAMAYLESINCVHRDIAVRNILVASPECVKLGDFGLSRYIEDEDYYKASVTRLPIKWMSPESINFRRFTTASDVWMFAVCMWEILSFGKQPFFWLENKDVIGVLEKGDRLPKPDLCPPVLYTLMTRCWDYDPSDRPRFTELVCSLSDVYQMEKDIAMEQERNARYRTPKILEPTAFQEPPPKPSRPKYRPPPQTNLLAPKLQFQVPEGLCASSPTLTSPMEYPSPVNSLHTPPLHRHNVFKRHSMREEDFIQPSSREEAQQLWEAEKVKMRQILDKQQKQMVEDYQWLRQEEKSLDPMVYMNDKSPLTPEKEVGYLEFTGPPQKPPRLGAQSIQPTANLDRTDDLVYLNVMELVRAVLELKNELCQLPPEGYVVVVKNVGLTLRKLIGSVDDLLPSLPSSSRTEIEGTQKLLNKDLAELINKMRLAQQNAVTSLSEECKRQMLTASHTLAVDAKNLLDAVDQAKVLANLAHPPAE
Chain of Obg-like ATPase 1 (Q9NTK5 whole entry, looked up): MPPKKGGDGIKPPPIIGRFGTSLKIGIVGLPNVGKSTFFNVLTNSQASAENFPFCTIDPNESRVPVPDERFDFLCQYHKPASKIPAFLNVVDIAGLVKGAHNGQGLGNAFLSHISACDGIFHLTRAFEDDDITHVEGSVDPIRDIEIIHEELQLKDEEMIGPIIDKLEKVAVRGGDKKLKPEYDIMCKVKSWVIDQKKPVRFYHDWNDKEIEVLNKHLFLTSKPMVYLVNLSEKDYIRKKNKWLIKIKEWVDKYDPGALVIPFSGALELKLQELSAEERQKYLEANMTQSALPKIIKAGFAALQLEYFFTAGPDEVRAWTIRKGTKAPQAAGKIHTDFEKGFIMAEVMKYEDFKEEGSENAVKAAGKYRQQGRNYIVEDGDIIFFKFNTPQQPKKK
Chain of NADH dehydrogenase [ubiquinone] 1 alpha subcomplex subunit 13 (Q9P0J0 whole entry, one chain of several): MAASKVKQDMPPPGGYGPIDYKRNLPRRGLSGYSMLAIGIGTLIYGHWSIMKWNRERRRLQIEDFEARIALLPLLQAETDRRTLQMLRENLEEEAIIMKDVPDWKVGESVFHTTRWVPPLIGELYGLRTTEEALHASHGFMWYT
Chain of DnaJ homolog subfamily A member 1 (P31689 whole entry): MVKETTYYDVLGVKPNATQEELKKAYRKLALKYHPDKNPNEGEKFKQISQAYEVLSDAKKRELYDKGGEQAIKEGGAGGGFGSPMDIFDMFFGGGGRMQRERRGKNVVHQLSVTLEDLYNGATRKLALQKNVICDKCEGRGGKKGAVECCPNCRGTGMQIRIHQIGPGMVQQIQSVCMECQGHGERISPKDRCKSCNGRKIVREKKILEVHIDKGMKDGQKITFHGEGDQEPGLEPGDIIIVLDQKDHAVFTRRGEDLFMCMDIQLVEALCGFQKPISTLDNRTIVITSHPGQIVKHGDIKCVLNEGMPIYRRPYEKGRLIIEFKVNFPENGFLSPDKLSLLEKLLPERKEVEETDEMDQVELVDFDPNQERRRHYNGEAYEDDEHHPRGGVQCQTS

Turning to `C=CC(=O)N1CCC[C@H](n2c(=O)n(-c3ccc(Oc4ccccc4)cc3)c3c(N)ncnc32)C1`, the Kd (on Myosin-14; in [1]; in assay [2]; in [3]; on Aurora kinase B; in [4]) was > 30 µM (inactive) throughout. Further, the Kd (in assay [5]; in [6]; in assay [7]; in assay [8]; in assay [9]; on Obg-like ATPase 1) was > 30 µM (inactive) each time. Further, the Kd in assay [10], in [11] and in assay [12] was > 30 µM (inactive) throughout.
Consider `Cc1nc(NC(=O)N2CCC[C@H]2C(N)=O)sc1-c1ccnc(C(C)(C)C(F)(F)F)c1` [ALPELISIB], for which the Kd (at Myosin-14; in assay [1]; in assay [2]; on Aurora kinase B; in [5]; in assay [6]) was > 30 µM (inactive) throughout. The Kd (in assay [7]; in assay [8]; in assay [9]; on Obg-like ATPase 1; in assay [10]; in assay [11]) was > 30 µM (inactive) in each case. For the same compound, the Kd in assay [12] is > 30 µM (inactive).
Regarding `COc1cc([C@@H]2c3cc4c(cc3[C@H](O)[C@H]3COC(=O)[C@@H]23)OCO4)cc(OC)c1OC` [AXL-1717], the Kd (at Myosin-14; in [1]; in assay [2]; in assay [3]; on Aurora kinase B; in assay [4]) was > 30 µM (inactive) throughout. Moreover, the Kd (in assay [5]; in [6]; in assay [7]; in assay [8]; on Obg-like ATPase 1; in assay [10]) was > 30 µM (inactive) in each case. In addition, the Kd in assay [11] and in [12] was > 30 µM (inactive) in each case. In assay [9], this compound showed a negative logarithm of the Kd (pKd) of 6.31.
Turning to `NC(=O)Nc1cc(-c2cccc(F)c2)sc1C(=O)N[C@H]1CCCNC1` [AZD-7762], the Kd at Myosin-14 is > 30 µM (inactive); in assay [1] it was > 30 µM (inactive); in [2], > 30 µM (inactive); in assay [3] it was > 30 µM (inactive); on Aurora kinase B it was 0.715 µM (active); in assay [4] it was > 30 µM (inactive). The Kd in [5] was > 30 µM (inactive); in [6], > 30 µM (inactive); in assay [7], 0.05 µM (active); in assay [8] it was 0.608 µM (active); in assay [9] it was > 30 µM (inactive); at Obg-like ATPase 1 it was > 30 µM (inactive). The Kd is > 30 µM (inactive) in assay [10], > 30 µM (inactive) in assay [11] and 0.166 µM (active) in assay [12].
Take `Cn1cnc2c(F)c(Nc3ccc(Br)cc3F)c(C(=O)NOCCO)cc21` [BINIMETINIB]: the Kd (at Myosin-14; in assay [1]; in assay [2]; in assay [3]; at Aurora kinase B; in assay [4]) was > 30 µM (inactive) each time. Further, the Kd (in assay [5]; in [6]; in [7]; in assay [8]; in assay [9]; at Obg-like ATPase 1) was > 30 µM (inactive) throughout. Moreover, the Kd in [10] is > 30 µM (inactive); in assay [11], 14.7 µM (active); in assay [12], > 30 µM (inactive).
Regarding `CC(C)(C)c1nc(-c2cccc(NS(=O)(=O)c3c(F)cccc3F)c2F)c(-c2ccnc(N)n2)s1` [DABRAFENIB], the Kd (at Myosin-14; in assay [1]; in [2]; in assay [3]; on Aurora kinase B; in [4]) was > 30 µM (inactive) each time. The Kd (in assay [5]; in assay [6]; in assay [7]; in [8]; in assay [9]; on Obg-like ATPase 1) was > 30 µM (inactive) in each case. Also, the Kd in [10], in [11] and in assay [12] was > 30 µM (inactive) throughout.
Turning to `Cc1nc2cc(-n3ncc(C(=O)c4cc5ccccc5[nH]4)c3N)ccc2[nH]1` [FGFR INHIBITOR DEBIO 1347], the Kd (in assay [1]; in [2]; in assay [3]; at Aurora kinase B; in assay [4]; in [5]) was > 30 µM (inactive) each time. In addition, the Kd (in [6]; in assay [7]; in assay [8]; in assay [9]; at Obg-like ATPase 1; in [10]) was > 30 µM (inactive) throughout. The Kd in assay [11] and in assay [12] was > 30 µM (inactive) each time.
Take `Cn1ncc(Cl)c1-c1cc(C(=O)N[C@H](CN)Cc2ccc(F)c(F)c2)oc1Cl` [UPROSERTIB]: the Kd (on Myosin-14; in assay [1]; in assay [2]; at Aurora kinase B; in assay [4]; in [5]) was > 30 µM (inactive) each time. Besides, the Kd (in assay [6]; in assay [7]; in [8]; in assay [9]; at Obg-like ATPase 1; in assay [10]) was > 30 µM (inactive) each time. The Kd in [11] and in [12] was > 30 µM (inactive) throughout.
